The assay deals with 5HT6 human recombinant receptor (Homo sapiens, UniProt P50406). The assay can be described thus: Binding with serotonin receptor 5HT6 ([3H]-LSD radioligand displacement, HEK-293 cell membranes). To be noted: for inhibition at 0.01 µM: read-out: Binding % Inhibition 10 nM; for inhibition at 0.1 µM: read-out: Binding % Inhibition 100 nM.
5HT6 human recombinant receptor, sequence (P50406 whole entry): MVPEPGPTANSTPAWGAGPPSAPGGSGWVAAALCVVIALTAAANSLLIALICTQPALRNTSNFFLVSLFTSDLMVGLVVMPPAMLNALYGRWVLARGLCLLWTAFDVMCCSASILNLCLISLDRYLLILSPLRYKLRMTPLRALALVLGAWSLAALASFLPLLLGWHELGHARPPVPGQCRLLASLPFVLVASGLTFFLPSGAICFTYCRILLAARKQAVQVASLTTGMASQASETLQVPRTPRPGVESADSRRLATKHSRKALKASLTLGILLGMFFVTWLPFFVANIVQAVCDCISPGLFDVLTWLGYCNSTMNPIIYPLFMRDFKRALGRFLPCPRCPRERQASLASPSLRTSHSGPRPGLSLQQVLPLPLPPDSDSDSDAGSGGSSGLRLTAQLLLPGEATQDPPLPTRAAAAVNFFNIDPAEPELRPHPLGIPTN

Consider `CN(C)CCc1c[nH]c2ccc(NS(=O)(=O)c3ccc4cc(Cl)ccc4c3)cc12` [Example 1, 6-chloro-N-(3-(2-(dimethylamino)ethyl)-1H-indol-5-yl)naphthalene-2-sulfonamide], for which the inhibition at 0.01 µM was 73.9% and the inhibition at 0.1 µM worked out at 84.4%.
As for `CN(C)CCc1c[nH]c2ccc(NS(=O)(=O)c3cccc4c(N(C)C)cccc34)cc12` [Example 2], the Ki came to 5.3 nM, the inhibition at 0.01 µM was determined as 75.1% and the inhibition at 0.1 µM amounted to 86.3%.
In the same order, the values of `Cc1ccc(S(=O)(=O)Nc2ccc3[nH]cc(CCN(C)C)c3c2)c2ccccc12` [Example 3, N-(3-(2-(dimethylamino)ethyl)-1H-indol-5-yl)-4-methylnanhthalene-1-sulfonamide] are 9.8 nM, 80.3% and 88.5%.
With `CN(C)CCc1c[nH]c2ccc(NS(=O)(=O)c3ccc4ccc(Cl)cc4c3)cc12` [Example 4, 7-chloro-N-(3-(2-(dimethylamino)ethyl)-1H-indol-5-yl)naphthalene-2-sulfonamide], the Ki amounted to 3.9 ± 0.4 nM, the inhibition at 0.01 µM turned out to be 81.2% and the inhibition at 0.1 µM is 89.3%.
For `CN(C)CCc1c[nH]c2ccc(NS(=O)(=O)c3ccc4cc(N(C)C)ccc4c3)cc12` [Example 5, 6-(dimethylamino)-N-(3-(2-(dimethylamino)ethyl)-1H-indol-5-yl)naphthalene-2-sulfonamide], the Ki amounted to 11.9 ± 3.3 nM, the inhibition at 0.01 µM turned out to be 69.8% and the inhibition at 0.1 µM is 88.5%.
In the same order, the values of `CN(C)CCc1c[nH]c2ccc(NS(=O)(=O)c3cccc4cccc(Cl)c34)cc12` [Example 6, 8-chloro-N-(3-(2-(dimethylamino)ethyl)-1H-indol-5-yl)naphthalene-1-sulfonamide] are 2.1 nM, 68.4% and 88.4%.
For `CN(C)CCc1c[nH]c2ccc(NS(=O)(=O)c3ccc(F)c4ccccc34)cc12` [Example 7, N-(3-(2-(dimethylamino)ethyl)-1H-indol-5-yl)-4-fluoronaphthalene-1-sulfonamide], in that order: 5.2 nM, 81.5% and 95.4%.
As to `CN(C)CCc1cn(C)c2ccc(NS(=O)(=O)c3ccc4c(Cl)cccc4c3)cc12` [Example 8, 5-chloro-N-(3-(2-(dimethylamino)ethyl)-1-methyl-1H-indol-5-yl)naphthalene-2-sulfonamide], the Ki turned out to be 13.4 ± 0.9 nM, the inhibition at 0.01 µM was 64.5% and the inhibition at 0.1 µM came to 93.4%.
In the same order, the values of `Cn1cc(CCN2CCCC2)c2cc(NS(=O)(=O)c3cccc4ccccc34)ccc21` [Example 9, N-(1-methyl-3-(2-(pyrrolidin-1-yl)ethyl)-1H-indol-5-yl)naphthalene-1-sulfonamide] are 42.5 ± 13.9 nM, 58.1% and 86.8%.
Consider `CN(C)CCc1c[nH]c2ccc(N(C)S(=O)(=O)c3cccc4ccccc34)cc12` [Example 10, N-(3-(2-(dimethylamino)ethyl)-1H-indol-5-yl)-N-methylnaphthalene-1-sulfonamide], for which the Ki was found to be 9.7 ± 4.5 nM, the inhibition at 0.01 µM was determined as 79.2% and the inhibition at 0.1 µM is 92.7%.
On to `CN(C)CCc1c[nH]c2ccc(N(C)S(=O)(=O)c3ccc4ccccc4c3)cc12` [Example 11, N-(3-(2-(dimethylamino)ethyl)-1H-indol-5-yl)-N-methylnaphthalene-2-sulfonamide], for which the Ki is 12.3 ± 3.7 nM, the inhibition at 0.01 µM worked out at 73.1% and the inhibition at 0.1 µM was 93.1%.
`CN(C)CCc1c[nH]c2ccc(N(C)S(=O)(=O)c3cccc4c(Cl)cccc34)cc12` [Example 12, 5-chloro-N-(3-(2-(dimethylamino)ethyl)-1H-indol-5-yl)-N-methylnaphthalene-1-sulfonamide]: the Ki was found to be 48.7 ± 6.9 nM, the inhibition at 0.01 µM is 51.6% and the inhibition at 0.1 µM stood at 85.4%.
As to `CN(C)CCc1c[nH]c2ccc(N(C)S(=O)(=O)c3ccc4c(Cl)cccc4c3)cc12` [Example 13, 5-chloro-N-(3-(2-(dimethylamino)ethyl)-1H-indol-5-yl)-N-methylnaphthalene-2-sulfonamide], the Ki stood at 18.1 ± 2.6 nM, the inhibition at 0.01 µM stood at 55.5% and the inhibition at 0.1 µM came to 87.6%.
Regarding `COc1cccc2c(S(=O)(=O)Nc3ccc4[nH]cc(CCN(C)C)c4c3)cccc12` [Example 14, N-(3-(2-(dimethylamino)ethyl)-1H-indol-5-yl)-5-methoxynanhthalene-1-sulfonamide], the Ki worked out at 18.6 nM, the inhibition at 0.01 µM was found to be 59.6% and the inhibition at 0.1 µM is 88.1%.
Consider `CN(C)CCc1c[nH]c2ccc(NS(=O)(=O)c3cccc4c(O)cccc34)cc12` [Example 15, N-(3-(2-(dimethylamino)ethyl)-1H-indol-5-yl)-5-hydroxynaphthalene-1-sulfonamide], for which the inhibition constant Ki came to 0.5 nM, the inhibition at 0.01 µM was 91.9% and the inhibition at 0.1 µM was 94.6%.
In the same order, the values of `COc1ccc2ccc(S(=O)(=O)Nc3ccc4[nH]cc(CCN(C)C)c4c3)cc2c1` [Example 16, N-(3-(2-(dimethylamino)ethyl)-1H-indol-5-yl)-7-methoxynaphthalene-2-sulfonamide] are 5 ± 1.3 nM, 70% and 89.3%.
Turning to `CN(C)CCc1c[nH]c2ccc(NS(=O)(=O)c3ccc4ccc(O)cc4c3)cc12` [Example 17, N-(3-(2-(dimethylamino)ethyl)-1 H-indol-5-yl)-7-hydroxynaphthalene-2-sulfonamide], the Ki worked out at 6.9 ± 0.2 nM, the inhibition at 0.01 µM was 69.9% and the inhibition at 0.1 µM was determined as 91.5%.
For `COc1cccc2cccc(S(=O)(=O)Nc3ccc4[nH]cc(CCN(C)C)c4c3)c12` [Example 18, N-(3-(2-(dimethylamino)ethyl)-1H-indol-5-yl)-8-methoxynaphthalene-1-sulfonamide], in that order: 8.3 nM, 69.2% and 88.4%.
Turning to `CN(C)CCc1c[nH]c2ccc(NS(=O)(=O)c3cccc4cccc(O)c34)cc12` [Example 19, N-(3-(2-(dimethylamino)ethyl)-1H-indol-5-yl)-8-hydroxynaphthalene-1-sulfonamide], the inhibition constant (Ki) amounted to 24.6 ± 2.1 nM, the inhibition at 0.01 µM came to 53.8% and the inhibition at 0.1 µM came to 85.9%.
In the same order, the values of `COc1ccc(S(=O)(=O)Nc2ccc3[nH]cc(CCN(C)C)c3c2)c2ccccc12` [Example 20, N-(3-(2-(dimethylamino)ethyl)-1H-indol-5-yl)-4-methoxynaphthalene-1-sulfonamide] are 8.5 ± 1.7 nM, 53.3% and 81.8%.

As a reminder, the inhibition is how much of the control response was suppressed. A word on the Ki: it is a measure of affinity in units of concentration, obtained from inhibition or displacement.
